Experimental data from patent publication US4221909A, “P-Acetamidobenzoic acid salts of 9-(hydroxyalkyl) purines” (Sloan-Kettering Institute for Cancer Research, priority 1978, dated 1980).
Converted amounts (≈) assume the structure as drawn.

Assays:
spleen cells = assay: In vivo treatment of mice: effect on in vitro stimulation of spleen cell proliferation by Con A; parameters: species or system mice (Balb/C); settings: oral, twice daily for 1 day; for response of spleen cells to Con A versus placebo: Con A 10 μg/ml; for subsequent response of the spleen cells, in vitro, to Con A stimulation: suboptimal Con A 5 μg/ml
Experimental: The purpose of this study was to determine the effects of in vivo treatment of mice with the compounds NPT 15392 and 15410 on the subsequent activity of spleen cells isolated from these animals and evaluated in vitro for their proliferative response to the mitogen, Concanavalin A (Con A).
Nine male Balb/C mice, 8-9 weeks old, weighing 18-20 gms were divided into three groups. One group was treated twice daily (for 1 day), in the morning and afternoon, with an oral dose of NPT 15392 at 10 mg/kg. The second group was similarly treated with NPT 15410 at 20 mg/kg. A third group, dosed with saline served as a placebo control.
The following day, each group was sacrificed and the spleens removed and pooled. The spleens were minced and the cells washed in RPMI-1640 medium (Grand Island Biologicals) supplemental with 2 mm glutamine and antibiotics. The cell concentration of each preparation was determined by a Coulter counter and adjusted to 5×10^6 cells/ml with RPMI medium.
Microtiter assays were carried out in 0.2 ml incubations, containing 5×10^5 cells and Con A or Con A and compounds at the indicated concentrations. All assays were performed with 6 replicates and compared with a blank assay containing only cells. The assay plates were incubated at 37° in 5% CO2 for 4 days. During the final 18-20 hours of incubation, 0.5 ml of ^3 HTdR (10 μCi/ml, 6 Ci /m mole) were added to each culture. The cultures were harvested with a multiple automatic sample harvester (MASH) unit and the incorporated ^3 HTdR determined with a Beckman LS 8000 liquid scintillation counter, as a measure of cell proliferation. The results are tabulated as the ratio of the activity in the Con A or Con A and compound treated cultures to the blank cultures.

L-1210 cells = assay: Anti-Leukemic Activity (Inhibition of L-1210 Growth); format: cell-based, mouse
Experimental: Leukemic cells isolated from mice bearing the L-1210 tumor are cultured in vitro and their growth can be measured by counting the number of cells in the culture over a period of time. The incorporation of a test substance into the media will prevent the growth of the leukemic cells, an indication of an effective anti-leukemic agent.
Check to see that there is adequate cell growth in the stock cultures. Use cells 48-72 hours after transfers are done.
Weigh out the drugs at 50 times the desired final concentration and made serial dilutions.
Make up the final medium using 500 mls McCoy's 5A medium, 15% fetal calf serum, 5 mls penicillin-streptomycin solution, and 5 mls antibiotic-antimycotic solution and let it stand at room temperature.
Using sterile technique, add 0.1 ml of the drug dilutions to each tube.
Add an appropriate quantity of cells to the prepared medium. After mixing, remove a 0.5 ml sample, place it in a vial containing […] of saline, and count it on the Coulter Counter. Multiply the count by 40 to compensate for the 40 fold dilution (0.5 ml into […] and record the inoculum.
Add 5 mls of cell suspension to each tube. Swirl the bottle every 4 tubes to insure a more uniform distribution of cells.
Tighten the caps and place in the CO2 incubator at 36°-38° for 96 hours. […]

herpes hominis type 2 = assay: Anti-Herpes Activity (Plaque Assay); format: cell-based; settings: concentrations less than 100 μg/ml
Excerpt: The infection of tissue culture cells by Herpes virus causes cell lysis. After a period of time these lysed cells are visualized as a tiny clear area (plaque) on a layer of cells. The incorporation of a test substance into the media will reduce the number of plaques if it is capable of preventing virus replication. The method is as follows:
There was employed herpes hominis type 2 purchased from American Type Culture Collection (ATCC), Bethesda, Md., ATCC #VR 540, Lot 3D. The lyophilized viral suspension was reconstituted with 1 ml sterile distilled H2 O. The virus was passed twice through HeLa-cell monolayers. The tissue-culture supernates were pooled, dispensed in 1-ml aliquots, and stored at -70° C.
Vero cells in log-growth phase were subcultured at a concentration of 1×10^5 cells/ml in 50-ml Falcon flasks in Eagle's Minimum Essential Medium (MEM), supplemented with 10% fetal calf serum (FCS) and antibiotics. Media were changed the day following planting. […]
Agarose was prepared at a concentration of 6% w/v in 50 ml PBS. […] In addition, a 1:10 dilution of pooled human anti-herpes sera was readied. […]
Plaques were counted either directly by transmitted fluorescent light and macroviewing, or by the use of light microscopy for microplaques. Microplaques were counted by averaging three fields per experimental group under 150× magnification.

Phase solubility studies = format: physicochemical; settings: constant pH
Excerpt: This is indicative of an interaction occuring in solution to yield a complex.

Compound	response of spleen cells to Con A versus placebo (spleen cells)	subsequent response of the spleen cells, in vitro, to Con A stimulation (spleen cells)	DIP.PAcBA potentiation of Anti-Leukemia activity (L-1210 cells; DIP.PAcBA salt vs parent compound)	IC50 (L-1210 cells; Mus musculus, L1210, 96 h, 96 hours, text: μg/ml, read-out: I50 (concentration of drug inhibiting growth of L-1210))	reduction of plaque formation caused by Herpes Simplex virus (herpes hominis type 2)	solubility at increasing concentrations of DIP.PAcBA (Phase solubility studies)
CCCCCC[C@H]([C@H](C)O)n1cnc2c(=O)[nH]cnc21 (relative stereo) [NPT 15410]	No significant differences	increases the subsequent response of the spleen cells	Yes	–	–	–
CCCCCCC(CO)n1cnc2c(=O)[nH]cnc21 (centres unmarked) [NPT 15417]	–	–	–	47 µg/mL (≈ 178 µM)	–	–
CCCCCC[C@H]([C@H](C)O)n1cnc2c(=O)[nH]cnc21 (relative stereo) [NPT 15392, Erythro-9-(2-Hydroxy-3-Nonyl)Hypoxanthine]	No significant differences	increases the subsequent response of the spleen cells	–	–	> 90%	increased solubility
